Results taken from ChEMBL document CHEMBL5500346, “Targeting EGFR degradation by autophagosome degraders” (Eur J Med Chem, 2024).
The source made the active and inactive calls. Unless noted, the rule behind the calls is not given here.

Key:
[1] = Toxicity in C57BL/6 mouse assessed as serum ALT level at 100 mg/kg, ip measured after 24 hrs (reference value: 42.554 U/L); format: organism-based; conditions: in vivo
[2] = Toxicity in C57BL/6 mouse assessed as serum ALP level at 100 mg/kg, ip measured after 24 hrs (reference value: 250.654 U/L); format: organism-based; conditions: in vivo
[3] = Toxicity in C57BL/6 mouse assessed as serum DBIL level at 100 mg/kg, ip measured after 24 hrs (reference value: 7.868 umol/L); format: organism-based; conditions: in vivo
[4] = Toxicity in C57BL/6 mouse assessed as lethargy upto 200 mg/kg, ip measured after 24 hrs; format: organism-based; conditions: in vivo
[5] = Toxicity in C57BL/6 mouse assessed as ataxia upto 200 mg/kg, ip measured after 24 hrs; format: organism-based; conditions: in vivo
[6] = system: PC-9; experiment: In vivo ATTEC activity at LC3B/EGFR in human PC-9 cells implanted in NOD-SCID mouse assessed as protein degradation at 20 mg/kg, ip measured after 24 hrs by Western blot analysis; format: functional, organism-based
[7] = system: NCI-H3255; experiment: Inhibition of colony formation in human NCI-H3255 cells incubated for 2 weeks by crystal violet staining based analysis; format: functional, cell-based; conditions: dose 0.1-10 µM
[8] = molecular target: T1, Microtubule-associated protein 1 light chain 3 beta/Epidermal growth factor receptor (Homo sapiens, UniProt P00533+Q9GZQ8); experiment: ATTEC activity at LC3B/EGFR in human HCC827 cells assessed as increase in density of lysosomes incubated for 4 hrs by LysoTracker Red staining based analysis; format: cell-based
[9] = Toxicity in C57BL/6 mouse assessed as change in hematological indicators upto 200 mg/kg, ip measured after 24 hrs by blood cell analysis; format: organism-based; conditions: in vivo
[10] = Half life in Sprague-Dawley rat at 20 mg/kg, ip; format: ADME, organism-based; conditions: in vivo
[11] = Toxicity in C57BL/6 mouse assessed as serum AST level at 100 mg/kg, ip measured after 24 hrs (reference value: 234.682 U/L); format: organism-based; conditions: in vivo
[12] = molecular target: T1, Microtubule-associated protein 1 light chain 3 beta/Epidermal growth factor receptor; experiment: ATTEC activity at LC3B/EGFR in Baf-treated human HCC827 cells assessed as protein degradation at 1 uM incubated for 16 hrs by Western blot analysis; format: cell-based
[13] = Toxicity in C57BL/6 mouse assessed as serum ALT level at 200 mg/kg, ip measured after 24 hrs (reference value: 42.554 U/L); format: organism-based; conditions: in vivo
[14] = molecular target: T1, Microtubule-associated protein 1 light chain 3 beta/Epidermal growth factor receptor; experiment: ATTEC activity at LC3B/EGFR in EBSS-treated human HCC827 cells assessed as protein degradation by Western blot analysis; format: cell-based
[15] = system: L02; experiment: Antiproliferative activity against human HL7702 cells incubated for 72 hrs by CCK8 assay; format: toxicity, cell-based; conditions: l02, 72 h
[16] = molecular target: T1, Microtubule-associated protein 1 light chain 3 beta/Epidermal growth factor receptor; experiment: ATTEC activity at LC3B/EGFR in human NCI-H1975 cells assessed as protein degradation; format: cell-based
[17] = Toxicity in C57BL/6 mouse assessed as serum TBA level at 100 mg/kg, ip measured after 24 hrs (reference value: 2.674 umol/L); format: organism-based; conditions: in vivo
[18] = Toxicity in C57BL/6 mouse assessed as serum DBIL level at 200 mg/kg, ip measured after 24 hrs (reference value: 7.868 umol/L); format: organism-based; conditions: in vivo
[19] = system: HCC827; experiment: Inhibition of colony formation in human HCC827 cells incubated for 2 weeks by crystal violet staining based analysis; format: functional, cell-based; conditions: dose 0.1-10 µM
[20] = molecular target: T1, Microtubule-associated protein 1 light chain 3 beta/Epidermal growth factor receptor; experiment: ATTEC activity at LC3B/EGFR in rapamycin-treated human HCC827 cells assessed as protein degradation by Western blot analysis; format: cell-based
[21] = Toxicity in C57BL/6 mouse assessed as serum creatinine level at 100 mg/kg, ip measured after 24 hrs (reference value: 32.258 umol/L); format: organism-based; conditions: in vivo
[22] = Stability in mouse plasma at 1 mg/ml incubated for 160 mins by HPLC analysis; format: ADME, cell-free; conditions: read-out: Stability
[23] = molecular target: T1, Microtubule-associated protein 1 light chain 3 beta/Epidermal growth factor receptor; experiment: ATTEC activity at LC3B/EGFR in CHX-treated human HCC827 cells assessed as protein degradation at 1 uM incubated for 12 hrs by Western blot analysis; format: cell-based
[24] = Toxicity in C57BL/6 mouse assessed as serum TBIL level at 100 mg/kg, ip measured after 24 hrs (reference value: 18.958 umol/L); format: organism-based; conditions: in vivo
[25] = Toxicity in C57BL/6 mouse assessed as serum TBA level at 200 mg/kg, ip measured after 24 hrs (reference value: 2.674 umol/L); format: organism-based; conditions: in vivo
[26] = system: NCI-H3255; experiment: Antiproliferative activity against human NCI-H3255 cells incubated for 72 hrs by CCK8 assay; format: functional, cell-based; conditions: NCI-H3255, 72 h
[27] = Toxicity in C57BL/6 mouse assessed as serum ALP level at 200 mg/kg, ip measured after 24 hrs (reference value: 250.654 U/L); format: organism-based; conditions: in vivo

- Activity [8]: Active
- half-life [10]: 10.5 h
- Activity [12]: inactive
- Activity [14]: Active
- Activity [16]: inactive
- Activity [20]: Active
- remaining at 2.667 h, 1 mg/ml [22]: 90%
- Activity [23]: inactive
- IC50 [26]: 3000 nM
Structure (SMILES): COc1cc2ncnc(Nc3ccc(F)c(Cl)c3)c2cc1OCCOCCOCCOCCNC(=O)COc1c(Br)cc(/C=C2\C(=O)Nc3ccc(I)cc32)cc1Br
- Activity [1]: 65.504 U/L
- Activity [2]: 185.73 U/L
- Activity [3]: 6.434 µmol/L
- Activity [4]: Non-Toxic
- Activity [5]: Non-Toxic
- Activity [6]: Active
- inhibition [7]: Dose-Dependent Effect
- Activity [9]: Non-Toxic
- Activity [11]: 229.632 U/L
- Activity [13]: 43.302 U/L
- Activity [15]: Non-Toxic
- Activity [17]: 2.53 µmol/L
- Activity [18]: 6.434 µmol/L
- inhibition [19]: Dose-Dependent Effect
- Activity [21]: 27.8 µmol/L
- Activity [24]: 17.83 µmol/L
- Activity [25]: 3.062 µmol/L
- Activity [27]: 177.394 U/L
